Key:
MSCs [1] = assay: MSC cell viability, MTS assay; assay type: cell-based, human
Description: Cell viability was determined by MTS assay at 3 days, 5 days, and 7 days. After incubation for the designated time period, Ac4ManNAz-containing medium was exchanged with 500 μL of fresh growth medium and 100 μL of the MTS/PMS solution was added to each well. Cells were further incubated for one hour at 37° C. and soluble formazan produced by the live cells was measured at 490 nm using a microplate reader. Cells without Ac4ManNAz treatment were used as a control.

MSCs [2] = system: MSCs
Description: Various Ac4ManNAz concentrations were evaluated as follows. MSCs were seeded onto 96-well plate at a density of 1.5×10^3 cells/well in 150 μL of MSCM supplemented with 0, 1 μM, 5 μM, 10 μM, 20 μM, 50 μM, or 100 μM final concentration of Ac4ManNAz. After three days of incubation, the cells were washed twice with DPBS and treated with sulforhodamine B dibenzocyclooctyl (DBCO-sulforhodamine B) (20 μM final concentration) for one hour. Cells were rinsed five times with DPBS and images were taken using a fluorescence microscope. For quantitative analysis, cells treated with Ac4ManNAz were stained with DBCO-carboxyrhodamine and the fluorescence intensity (λex: 485 and λem: 528 nm) was measured using plate reader (FLx800 microplate fluorescence reader, BioTek Instruments, Inc., Winooski, Vt., USA).
Similarly, various Ac4ManNAz incubation times were evaluated by culturing MSCs in 20 μM Ac4ManNAz for different incubation times. The cells were treated as before for microscopy or quantitation of available azide groups. The treatments were staggered to perform the final analysis at the same time to maintain the cell number at the time of analysis.

[3] = system: orthotopic ovarian tumors; assay: Antitumor efficacy of glycoengineered MSC pre-incubated with DBCO-functionalized paclitaxel nanoparticles (FIG. 10); assay type: in vivo, mice; settings: Kaplan-Meier; intraperitoneal; 2×10^6 MSC-Az; ABRAXANE at 40 mg/kg paclitaxel on day 0, 4, 8
Description: FIG. 10. Antitumor efficacy of glycoengineered MSC pre-incubated with DBCO-functionalized paclitaxel nanoparticles.
Saline-treated animals were used as […] control.

[4] = system: platinum-resistant C200 ovarian cancer cells; assay: Cytotoxicity in co-culture […] assay (FIG. 11); assay type: cell-based
Description: FIG. 11. IC50 of glycoengineered MSCs in platinum-resistant C200 ovarian cancer cells in co-culture using […] assay (Corning, Inc., Tewksbury, Mass.). The cytotoxic potential of glycoengineered MSCs was determined by co-culturing with C200 cells using a […] assay at 72 hours. For cytotoxicity assessment, C200 cells (20,000/well) were seeded in lower chamber of 24 well […] plate with different concentrations of glycoengineered MSCs in upper chamber. […] However, when incubated at 1:1 ratio of C200 to glycoengineered-MSCs, 75% cytotoxicity was observed.

[5] = system: subcutaneous A549-Luc tumors injected with MSC-Az or control MSC; assay: In vivo click chemistry with intravenous DBCO-Cy5.5; parameters: species or system athymic nude mice
Description: A549-Luc lung tumors were developed in athymic nude mice such that each animal has two tumors, one on each side of the abdomen. When the tumors reached about 100 mm^3, the animals received intratumoral injection (5×10^5 cells/100 μL) of control MSCs in one tumor and MSC-Az in the other tumor of the same animal. One hour following MSC injection, 5 μg of DBCO-Cy5.5 in 100 μL DPBS was injected intravenously per mice. DBCO-Cy5.5 binding to MSC-Az was monitored by imaging at different time intervals (0.5 hour, 1 hour, 5 hours, or 24 hours) using an IVIS Spectrum live animal imager (Xenogen Corp., Alameda, Calif.).

With `CC(=O)OC[C@H]1OC(OC(C)=O)[C@@H](NC(=O)CN=[N+]=[N-])[C@@H](OC(C)=O)[C@@H]1OC(C)=O` (some centres unmarked) [Ac4ManNAz, N-azidoacetylmannosamine-tetraacylated] the “cell viability of MSCs” value (MSCs [1]; 100 μM after five days of incubation) was “reduced”, the “viability of MSCs” value (MSCs [1]; up to 50 μM for seven days) was “unaffected” and the “azide expression on MSC surface by fluorophore labeling” value (MSCs [2]; 20 μM in culture media) was “highest expression levels”. For the same compound, the “surface coverage of azide groups” value (MSCs [2]; three days of incubation) was “highest surface coverage of azide groups”.

Work on `CC(=O)O[C@H]1C(=O)[C@@]2(C)[C@H]([C@H](OC(=O)c3ccccc3)[C@]3(O)C[C@H](OC(=O)[C@H](O)[C@@H](NC(=O)c4ccccc4)c4ccccc4)C(C)=C1C3(C)C)[C@]1(OC(C)=O)CO[C@@H]1C[C@@H]2O` [PTX solution, paclitaxel] yielded a median survival [3] of 50 days and an IC50 [4] of 4.16 nM.

For `CCN1/C(=C/C=C/C=C/C2=[N+](CCCCCC(=O)NCCC(=O)N3Cc4ccccc4C#Cc4ccccc43)c3ccc4c(S(=O)(=O)[O-])cc(S(=O)(=O)O)cc4c3C2(C)C)C(C)(C)c2c1ccc1c(S(=O)(=O)O)cc(S(=O)(=O)O)cc21` [DBCO-Cy5.5], the “MSC-Az associated fluorescence in tumor” value ([5]; 24 hours post injection) was “found even at 24 hours” and the “fluorescent label in tumors” value ([5]; one hour post intravenous dosing) was “detected only in the tumors injected with MSC-Az”.
